The numbers were not newly measured in patent publication US9206466B2, “Compositions and methods for regulating peptidyltransferase activity and uses thereof” (University of Maryland, priority 2004, dated 2015), which cites them from elsewhere.

Structures are written as SMILES.

For one data set, the system named is −1 PRF. The following applies: yeast; Dinman et al., 1997.
The next data set deals with killer virus. Conditions: yeast; Dinman et al., 1997.

With `CSC[S@+]([O-])C[C@H](CO)NC(=O)/C=C/c1c(C)[nH]c(=O)[nH]c1=O` [sparsomycin], in the data set with −1 PRF, the “−1 PRF efficiencies” value was “promoted increased −1 PRF efficiencies”. The “maintenance of the killer virus” value in the data set with killer virus was “loss of the killer virus”.
